PubChem BioAssay AID1963854 (Molecular Pharmacology Branch, DTP, NCI, 2024)
Values joined by “and” are separate entries in the source; they are usually repeats but may differ in a detail not shown here. Identical values can stand only once.

Tested on: 186277-243-T-J2-PDC complex spheroid viability
Experiment: Anticancer human tumor 186277-243-T-J2-PDC patient-derived colon adenocarcinoma cell line growth inhibition [POLQ]
Details: for viability, T/C: stronger effect = lower value
Description: Multicellular complex tumor spheroid response to Polymerase (POL) inhibitors (novobiocin, ART-558, RP6685) in combination with a variety of drugs and investigational agents in selected tumor cell lines
The POL inhibitors (novobiocin, ART-558, and RP6685) were evaluated both individually and in combination with standard of care and investigational anticancer small molecules within a complex spheroid model of solid tumors. . Complex spheroids include a stromal component modeled by human endothelial cells (HUVEC) and fibroblasts modeled by human mesenchymal stem cells (MSCs). The concentration ranges selected for each drug and investigational agent were based upon clinically achievable concentrations if the clinical Cmax of the agent was known.
Compounds. The drugs and investigational agents: novobiocin (NSC847541), ART-558 (NSC835418), RP-6685 (NSC848927), peposertib (NSC802822), ceralasertib (NSC780249), elimusertib (NSC800525), camonsertib (NSC841442), AZD-1390 (NSC803789), olaparib (NSC753686), talazoparib (NSC767125), rucaparib (NSC756644), sotorasib (NSC818433), MRTX-1133 (NSC836407), SN-38 (NSC673596), topotecan (NSC609699), epotoside (NSC141540), doxorubicin (NSC123127), gemcitabine (NSC613327), 5-fluorouracil (NSC19893), paclitaxel (NSC125973), vemurafenib (NSC761431), MSA-2 (NSC828583), SN-011 (NSC837082), adavosertib (NSC754352), prexasertib (NSC758257), carboplatin (NSC241240) and oxaliplatin (NSC266046), were obtained from the National Cancer Institute (NCI) Developmental Therapeutics Program Chemical Repository (21). The FDA-approved anticancer drug set is available from the Developmental Therapeutics Program at https://dtp.cancer.gov/organization/dscb/obtaining/. […] The stock solutions were prepared in dimethyl sulfoxide (DMSO, Sigma-Aldrich, St. Louis, MO, cat. D2650), except for the platinum compounds which were prepared in saline (Quality Biological, Gaithersburg, MD, cat. 114-055-101), at 800-fold the tested concentration and stored at -70 degrees C prior to their use. All drugs and investigational agents were tested over a range starting from a high concentration at or near the clinical Cmax and decreasing in half-log increments. If the clinical Cmax for an agent had not been determined, the highest concentration tested was 10 microM, except for SN-38, which was tested at a high concentration of 1 microM.
Cell Culture. All cells were maintained in an incubator at 37 degrees C and 5% CO2 with 95% humidity. The PDC lines were cultured according to standard operating procedures established by the NCI PDMR (https://pdmr.cancer.gov). Table 3 of the manuscript, lists the cell lines along with the number of the three cell types plated to form the mct-spheroids and media for tumor cell growth. After thawing, all PDC lines, except 997537-175-T-J1-PDC and 415267-285-R-J2-PDC, were cultured in Matrigel-coated flasks prepared with a working solution of 1X Ham's F-12 nutrient mix, without supplementation (Thermo Fisher Scientific, cat. 11765054), 100 U/mL penicillin-streptomycin (Thermo Fisher Scientific, cat. 15140122), and 2.5% Matrigel (Corning Inc., Corning, NY, cat. 354248) for the first three passages. The two PDC lines 997537-175-T-J1-PDC and 415267-285-R-J2-PDC were cultured on uncoated flasks. The 857933-349-R-J2-PDC line was cultured in 6C/Colon 1B media containing advanced DMEM/F-12 (Thermo Fisher Scientific, cat. 12634028), 10 mM HEPES (Thermo Fisher Scientific, cat. 15630080), 1X GlutaMAX supplement (Thermo Fisher Scientific, cat. 35050061), 0.1 mg/mL primocin (InvivoGen, San Diego, CA, cat. ant-pm-2), 10% defined fetal bovine serum, heat inactivated (HyClone Laboratories Inc., Logan, UT, cat. SH30070.03HI), 50% L-WRN conditioned media (ATCC, cat. CRL-3276), 1.25 mM N-Acetyl-L-cysteine (Sigma-Aldrich, cat. A9165), 10 mM nicotinamide (Sigma-Aldrich, cat. N0636), 1X B-27 supplement (Thermo Fisher Scientific, cat. 17504044), 1X N-2 supplement (Thermo Fisher Scientific, cat. […]
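Note: spheroids exposed to compounds for seven days.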
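Throughout, for viability, T/C: 100% = DMSO vehicle control viability.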

`COc1cc(C2c3cc4c(cc3C(OC3OC5COC(C)OC5C(O)C3O)C3COC(=O)C23)OCO4)cc(OC)c1O` (configuration not stated) + COC1C(OC(N)=O)C(O)C(Oc2ccc3c(O)c(NC(=O)c4ccc(O)c(CC=C(C)C)c4)c(=O)oc3c2C)OC1(C)C showed an IC50 (curve of first compound, second compound 0.0316 µM) of 727 nM, an IC50 (curve of first compound, second compound 0.1 µM) of 739 nM and an IC50 (curve of first compound, second compound 0.316 µM) of 659 nM. It also gave an IC50 (curve of first compound, second compound 1 µM) of 662 nM, an IC50 (curve of first compound, second compound 3.16 µM) of 560 nM and an IC50 (curve of first compound, second compound 10 µM) of 710 nM. It also gave a viability, T/C (second compound 0.0316 µM, first compound 0.0316 µM) of 112%, a viability, T/C (second compound 0.0316 µM, first compound 0.1 µM) of 128% and a viability, T/C (second compound 0.0316 µM, first compound 0.316 µM) of 76.6%. For the same compound, the viability, T/C (second compound 0.0316 µM, first compound 1 µM) was 40.9%, the viability, T/C (second compound 0.0316 µM, first compound 3.16 µM) was 25.7% and the viability, T/C (second compound 0.0316 µM, first compound 10 µM) was 11.6%. For the same compound, the viability, T/C (second compound 0.1 µM, first compound 0.0316 µM) was 98.8%, the viability, T/C (second compound 0.1 µM, first compound 0.1 µM) was 113% and the viability, T/C (second compound 0.1 µM, first compound 0.316 µM) was 69.9%. The viability, T/C (second compound 0.1 µM, first compound 1 µM) was 42.1%, the viability, T/C (second compound 0.1 µM, first compound 3.16 µM) was 27.3% and the viability, T/C (second compound 0.1 µM, first compound 10 µM) was 11.9%. The viability, T/C (second compound 0.316 µM, first compound 0.0316 µM) was 114%, the viability, T/C (second compound 0.316 µM, first compound 0.1 µM) was 116% and the viability, T/C (second compound 0.316 µM, first compound 0.316 µM) was 67.9%. The viability, T/C (second compound 0.316 µM, first compound 1 µM) was 39.7%, the viability, T/C (second compound 0.316 µM, first compound 3.16 µM) was 24.6% and the viability, T/C (second compound 0.316 µM, first compound 10 µM) was 11.8%. It also gave a viability, T/C (second compound 1 µM, first compound 0.0316 µM) of 118%, a viability, T/C (second compound 1 µM, first compound 0.1 µM) of 120% and a viability, T/C (second compound 1 µM, first compound 0.316 µM) of 65.3%. The viability, T/C (second compound 1 µM, first compound 1 µM) was 42.3%, the viability, T/C (second compound 1 µM, first compound 3.16 µM) was 25.5% and the viability, T/C (second compound 1 µM, first compound 10 µM) was 12.4%. The viability, T/C (second compound 3.16 µM, first compound 0.0316 µM) was 113%, the viability, T/C (second compound 3.16 µM, first compound 0.1 µM) was 124% and the viability, T/C (second compound 3.16 µM, first compound 0.316 µM) was 65.1%. It also gave a viability, T/C (second compound 3.16 µM, first compound 1 µM) of 37.6%, a viability, T/C (second compound 3.16 µM, first compound 3.16 µM) of 25.3% and a viability, T/C (second compound 3.16 µM, first compound 10 µM) of 11.3%. It also gave a viability, T/C (second compound 10 µM, first compound 0.0316 µM) of 120%, a viability, T/C (second compound 10 µM, first compound 0.1 µM) of 110% and a viability, T/C (second compound 10 µM, first compound 0.316 µM) of 69.6%. It also gave a viability, T/C (second compound 10 µM, first compound 1 µM) of 40.3%, a viability, T/C (second compound 10 µM, first compound 3.16 µM) of 26.8% and a viability, T/C (second compound 10 µM, first compound 10 µM) of 11.8%.
For `COc1cccc2c1C(=O)c1c(O)c3c(c(O)c1C2=O)CC(O)(C(=O)CO)CC3OC1CC(N)C(O)C(C)O1` (configuration not stated), the viability, T/C (compound 0.0316 µM) was 109% and 154% and 91.8%, the viability, T/C (compound 0.1 µM) was 56.6% and 106% and 42.8% and the viability, T/C (compound 1 µM) was 0.64% and 1.27% and 0.32%. For the same compound, the viability, T/C (compound 3.16 µM) was 0.26% and 1.06% and 0.23%, the viability, T/C (compound 10 µM) was 0.49% and 1.07% and 0.37% and the IC50 (curve of compound) was 118 nM and 250 nM and 84.5 nM.
In the case of `CC1COCCN1c1cc(C2(O)CC3CCC(C2)O3)c2cnn(-c3ccn[nH]3)c2n1` (configuration not stated), the viability, T/C (compound 0.0316 µM) is reported as 62.7% and 62.5% and 102%, the viability, T/C (compound 0.1 µM) is reported as 11% and 9.46% and 22.4% and the viability, T/C (compound 0.316 µM) is reported as 5.2% and 4.15% and 9.01%. The viability, T/C (compound 1 µM) was 4.03% and 3.64% and 7.13%, the viability, T/C (compound 3.16 µM) was 4.12% and 3.11% and 9.4% and the viability, T/C (compound 10 µM) was 4.18% and 3.19% and 7.62%. For the same compound, the IC50 (curve of compound) was 41.9 nM and 41.4 nM and 67.2 nM.
`O=C(Nc1ccc(O)c(NS(=O)(=O)c2ccc(F)cc2)c1)c1ccc(-c2ccccc2)cc1` was tested, and the viability, T/C (compound 0.0316 µM) was 108% and 109% and 99.2%, the viability, T/C (compound 0.1 µM) was 95.9% and 81.3% and 96.8% and the viability, T/C (compound 0.316 µM) was 103% and 90% and 102%. The viability, T/C (compound 1 µM) was 93.1% and 95.4% and 95.7%, the viability, T/C (compound 3.16 µM) was 114% and 98.8% and 102% and the viability, T/C (compound 10 µM) was 98% and 116% and 94.2%. For the same compound, the IC50 (curve of compound) was > 10000 nM.
